Source: ChEMBL document CHEMBL4052663, “Synthesis, antiviral evaluation and molecular docking studies of N4-aryl substituted/unsubstituted thiosemicarbazones derived from 1-indanones as potent anti-bovine viral diarrhea virus agents” (Bioorg Med Chem, 2017)
Active and inactive are the calls of the source. No cut-off for these calls is given here.

Columns and labels:
[1] = Antiviral activity against Bovine viral diarrhea virus 1-NADL infected in bovine MDBK cells assessed as reduction in plaque forming units after 72 hrs by crystal violet staining-based assay; format: functional, cell-based; settings: Bovine viral diarrhea virus isolates and strains
[2] = Cytotoxicity against bovine MDBK cells assessed as reduction in cell viability after 3 days by MTS/PES assay; format: cell-based, Bos taurus; settings: cattle
[3] = Selectivity index, ratio of CC50 for bovine MDBK cells to EC50 for Bovine viral diarrhea virus 1-NADL; format: toxicity; settings: cattle, read-out: Ratio CC50/EC50
[4] = test system: Bovine viral diarrhea virus 1; assay: Antiviral activity against wild type Bovine viral diarrhea virus 1 ATCC VR 534 infected in bovine MDBK cells assessed as reduction in virus induced cytopathic effect after 72 hrs by MTS/PES assay; format: functional, cell-based; settings: Bovine viral diarrhea virus isolates and strains, ATCC VR 534, MDBK
[5] = test system: Bovine viral diarrhea virus 1; assay: Antiviral activity against TSC-resistant Bovine viral diarrhea virus 1 harboring NS5B N264D/A392E double mutant infected in bovine MDBK cells assessed as reduction in virus induced cytopathic effect after 72 hrs by MTS/PES assay; format: functional, cell-based; settings: Bovine viral diarrhea virus isolates and strains
[6] = test system: Bovine viral diarrhea virus 1; assay: Ratio of EC50 for TSC-resistant Bovine viral diarrhea virus type 1 harboring NS5B N264D/A392E double mutant to EC50 for wild type Bovine viral diarrhea virus type 1 ATCC VR 534; format: functional
[7] = test system: Bovine viral diarrhea virus 1; assay: Antiviral activity against Bovine viral diarrhea virus 1 ATCC VR 534 infected in bovine MDBK cells assessed as reduction in virus induced cytopathic effect at 25 uM treated up to 4 hrs post infection measured after 48 hrs by MTS/PES assay; format: functional, cell-based

Row | Compound | EC50 [1] [µM] | CC50 at 72 h [2] [µM] | selectivity ratio [3] | EC50 [4] [µM] | EC50 [5] [µM] | Ratio EC50 [6] | inhibition [7]
1 | COc1cc2c(cc1OC)/C(=N/NC(N)=S)CC2 | 3.8 | > 80 | > 21.1 | 1.95 | > 80 | >41 | –
2 | COc1cc2c(cc1OC)/C(=N/NC(=S)Nc1ccc(F)cc1)CC2 | 4 | > 20 | > 5 | – | – | – | –
3 | COc1cc2c(cc1OC)/C(=N/NC(=S)Nc1ccc([N+](=O)[O-])cc1)CC2 | 0.7 | > 10 | > 14.3 | 0.45 | > 10 | >22 | –
4 | O=[N+]([O-])c1ccc(NC(=S)N/N=C2\CCc3ccccc32)cc1 | > 10 | > 10 | – | – | – | – | –
5 | NC(=S)N/N=C1\CCc2c1cccc2[N+](=O)[O-] | 6.1 | 84.6 | 14.2 | – | – | – | –
6 | COc1cc2c(cc1OC)/C(=N/NC(=S)Nc1ccc(C)cc1)CC2 | 8.8 | > 20 | > 2.3 | – | – | – | –
7 | COc1cc2c(cc1OC)/C(=N/NC(=S)Nc1ccc(Cl)cc1)CC2 | 6.6 | > 10 | > 1.5 | – | – | – | –
8 | COc1ccc(NC(=S)N/N=C2\CCc3ccccc32)cc1 | > 10 | > 10 | – | – | – | – | –
9 | Cc1ccc(NC(=S)N/N=C2\CCc3ccccc32)cc1 | > 20 | > 20 | – | – | – | – | –
10 | S=C(N/N=C1\CCc2ccccc21)Nc1ccccc1 | > 10 | > 10 | – | – | – | – | –
11 | Cc1cc(Br)c(C)c2c1/C(=N/NC(N)=S)CC2 | 7.4 | > 100 | > 13.5 | – | – | – | –
12 | NC(=O)c1ncn([C@@H]2O[C@H](CO)[C@@H](O)[C@H]2O)n1 [RIBAVIRIN] | 7.7 | – | 7.1 | – | – | – | –
13 | COc1ccc(NC(=S)N/N=C2\CCc3cc(OC)c(OC)cc32)cc1 | 12.9 | > 20 | > 1.6 | – | – | – | –
14 | S=C(N/N=C1\CCc2ccccc21)Nc1ccc(Cl)cc1 | > 20 | > 20 | – | – | – | – | –
15 | NC(=S)N/N=C1\CCc2cc(F)ccc21 | 9 | 41.9 | 5.4 | – | – | – | –
16 | NC(=S)N/N=C1\CCc2ccc([N+](=O)[O-])cc21 | 2.7 | > 25 | > 9.3 | 1.04 | 1.07 | – | Active
17 | COc1cc2c(cc1OC)/C(=N/NC(=S)Nc1ccccc1)CC2 | 8.4 | > 10 | > 1.2 | – | – | – | –
18 | Fc1ccc(NC(=S)N/N=C2\CCc3ccccc32)cc1 | > 20 | > 20 | – | – | – | – | –
